Experiment [1] has as its system E. coli, S. typhimurium and P. aeruginosa. Nature of the experiment: Screen across all three species / conservation of drug-drug interactions. The experiment is classed as cell-based. The note with it: for General effect in combinations: conserved interaction network; for Antibacterial activity / growth inhibition of the drug on its own: single drug, in the screen. How it is done: Conservation of drug-drug interactions between strains of the same species was assessed by Pearson correlation of the interactions scores ε. For potentially non-conserved drug-drug interactions, the expected fitness distributions of the two strains were taken into account.
To assess the cross-species conservation of drug-drug interactions, the inventors took into account only drug pairs that were probed in all three species. […] Interactions were then compared across the three species. Cases in which an interaction between drugs changed sign across species (conflicting interactions; ˜7% of all interactions) were excluded from the comparative “across-species” Venn diagram (FIG. 3D). Note that with current analysis a given drug-drug interaction may be conserved across species, but not conserved within the species.
Conservation at the single drug level was defined based on shared resistance and sensitivity. A strain was considered sensitive to a given drug if one of the drug concentrations inhibited growth for at least 30%.

Experiment [2] has as its system MDR clinical isolates E. coli 124, 1027, 1334. Briefly: 8×8 checkerboard assays against MDR clinical isolates. It counts as cell-based, Escherichia coli. The text has this: (§1) For each of the three Gram-negative species profiled in this study, the inventors used two broadly used and sequenced strains: Escherichia coli K-12 BW25113 and O8 IAI1, Salmonella enterica serovar typhimurium LT2 and 14028s, Pseudomonas aeruginosa PAO1 and PA14. To validate selected synergies, the inventors profiled 6 MDR clinical Enterobacteriaceae isolates recovered from human patient specimens: E. coli 124, 1027, 1334 and Klebsiella pneumoniae 718, 929 and 980.

Experiment [3] has as its system MDR clinical isolates Klebsiella pneumoniae 718, 929 and 980. The description is as above. The experiment is classed as cell-based. The note with it: MDR K. pneumoniae isolates.
Description: as §1

The subject of experiment [4] is E. coli BW and E. coli iAi1. Briefly: Benchmarking 8×8 checkerboard assays (Bliss / Loewe additivity). The experiment is classed as cell-based, Escherichia coli. The note with it: 8×8 checkerboards.
Description: For combinations between ß-lactams for which high-resolution 8×8 checkerboards with sufficient growth inhibition was available in the validation dataset, Loewe additivity was used to confirm the interactions. Drug-drug interactions were inferred by the shape of the isoboles (lines of equal growth) in two-dimensional drug concentration plots. […] To interpolate IC50 concentrations (or other ICn %), a logistic model was used to fit the growth for each concentration of the first drug across different concentrations of the second drug. The null-hypothesis of this model is represented by the additivity line: a linear isobole connecting equal individual IC's by the two drugs.
As in the screen, growth was assessed based on OD595 nm at early stationary phase for the no drug controls. The time-points used in the screen were used again here for screen strains, whereas 8 hours were used for all E. coli and K. pneumoniae MDR isolates. Fitness was calculated by dividing OD595 nm after single or double drug treatment by no drug treatment for each individual checkerboard. Bliss scores (ε) were calculated for all concentration ratios tested per drug combination, resulting in 49 ε values per drug pair. […] Antagonism was called when the median of the & distribution was above 0.1 or the Q3 was above 0.15. […]
Experiment [5] has as its system E. coli (BW25113 wildtype and mutants). Nature of the experiment: Minimal Inhibitory Concentration (MIC) calculation. It counts as cell-based, Escherichia coli. The following applies: for Effect on MIC of chloramphenicol / Effect on MIC of ciprofloxacin: vanillin 150 μg/ml, aspirin 500 μg/ml, E. coli; for MIC: Escherichia coli. As for the experimental part:
MICs to all drugs were computed using a logistic fit of growth (OD595 nm for 8 h) over 2-fold serial dilutions of the antibiotic concentrations for all strains used for the high throughput screening and follow-up experiments.

For experiment [6], the system named is E. coli BW mutants (ΔacrA, respiration-defective). The experiment is classed as cell-based, Escherichia coli. The note with it: ciprofloxacin 70% MIC. As for the experimental part: Aminoglycosides depend on PMF-energized uptake and thus respiratory complexes; ciprofloxacin is effluxed by AcrAB-TolC. […] Bliss interaction scores (ε) were calculated as in the screen and are represented by the mean and standard deviation across 3-8 replicates. d) Gentamicin and ciprofloxacin antagonism networks for E. coli BW. Nodes represent drugs colored according to targeted cellular process (as FIG. 1a). Full and dashed edges represent antagonistic drug-drug interactions for which intracellular antibiotic concentration was and was not measured, respectively. […] The bars for fluoroquinolones and aminoglycosides account for an extrapolation of antagonistic interactions to all other members of the two classes, assuming they behave the same as ciprofloxacin and gentamicin, respectively.
The kanamycin resistance cassettes was excised when necessary using the plasmid pCP20. The plasmid used for mdfA overexpression was obtained from the mobile E. coli ORF library.

In the next experiment the test system is E. coli BW25113. Briefly: Intracellular spectinomycin concentration with [3H]-spectinomycin. The note with it: vanillin 150 μg/ml; mdfA-dependent. It counts as cell-based, Escherichia coli. How it is done:
Intracellular spectinomycin was quantified by measuring [3H]-spectinomycin (1 μCi/mg; Hartmann Analytic Corp.). Overnight cultures of E. coli BW25113 were diluted 1:1,000 into 1 ml LB with and without vanillin (150 μg/ml) and grown to OD595 nm˜0.5. 50 μg/ml [3H]-spectinomycin:spectinomycin 1:100 was added and the cultures were incubated for 1 h. Cultures were pelleted, washed twice with PBS with 50 μg/ml non-labeled spectinomycin, re suspended in 1% SDS and incubated for 20 min at 85° C. The lysate was mixed with 8 ml liquid scintillation (Perkin Elmer ULTIMA Gold) and counted for 1 min using a Perkin Elmer Tri-Carb 2800TR. Measured radioactivity was normalized to cell number as measured by OD595 nm.

The subject of another experiment is marA. Briefly: Quantitative RT-PCR of marA expression. The experiment is classed as cell-based, Escherichia coli. The following applies: vanillin 150 μg/ml. As for the experimental part: Overnight cultures of E. coli BW25113 and the marR deletion mutant were diluted 1:2,000 into 20 ml LB and grown at 37° C. to OD595 nm˜0.2. Aspirin or vanillin were added to the cultures to 500 and 150 μg/ml final concentration respectively (DMSO was added in the control), followed by a 30 min incubation period at 37° C. with agitation. Cells were harvested and RNA extraction was done with the RNeasy Protect Bacteria Mini Kit (Qiagen) according to manufacturer's directions. cDNA was prepared for qRT-PCR using SuperScript™ III Reverse Transcriptase (Thermo Fisher Scientific). marA and mdfA expression levels were estimated by quantitative RT-PCR using SYBR™ Green PCR master mix following the manufacturer's instructions (Thermo Fisher Scientific). Primer sequences for marA and recA are previously described. All experiments were conducted in at least three biological replicates, and relative expression levels were estimated according to Livak et al., using recA expression as reference.

Another experiment has as its system AcrA. Briefly: Immunoblot analysis for AcrA protein quantification. It counts as cell-based, Escherichia coli. The following applies: vanillin 150 μg/ml; marA-dependent. As for the experimental part: Overnight cultures of E. coli BW25113 and the ΔmarA mutant were diluted 1:1,000 into 50 ml LB containing 500 μg/ml aspirin, 150 μg/ml vanillin or DMSO (drugs solvent control), followed by growth with agitation at 37° C. to OD595 nm˜0.5. Cells were washed in PBS containing corresponding drugs or DMSO, then resuspended to match OD595 nm=1. Cell pellets were resuspended in Laemmli buffer and heated to 95° C. for 3 minutes followed by immunoblot analysis with a-AcrA polyclonal antiserum (gift from K. M. Pos) at 1:200,000 dilution. Primary antiserum was detected using anti-rabbit HRP (A0545 Sigma) at 1:5,000 dilution. Pixel densities of bands were quantified using ImageJ. At least five different biological replicates were blotted and summarized by their mean and standard deviation.

For the next experiment, the system named is E. coli MG1655. Nature of the experiment: Intracellular gentamicin concentration with [3H]-gentamicin. It counts as cell-based, Escherichia coli. The following applies: gentamicin 5 μg/ml plus second drug.

“Also recorded” adds a separate entry of the source. Read-outs that look alike come from different tables or passages of the source. Some results are limits rather than exact numbers.

Description for E. coli MG1655: Intracellular gentamicin was quantified by measuring [3H]-gentamicin (1 mCi/ml; Hartmann Analytic Corp.), as previously described. Overnight cultures of E. coli MG1655 (ther parental stain of BW25113) were diluted 1:1,000 into 5 ml LB and grown to OD595 nm˜0.1. [3H]-gentamicin was diluted in cold gentamicin to get a 5 mg/ml (0.1 mCi/ml) stock solution, which was then added to the culture at a final concentration of 5 μg/ml (0.1 μCi/ml), simultaneously with the second drug: Berberine (200 μg/ml), Erythromycin (15 μg/ml), Metformin (13000 μg/ml), Procaine (6000 μg/ml), Loperamide (400 μg/ml), Benzalkonium (5 μg/ml). […] Cultures were then incubated at 37° C. on a rotary shaker. At 0, 0.5, 1, 1.5 and 2 h time-points, 500 μl aliquots were removed and applied to a 0.45 μm-pore-size HAWP membrane filter (Millipore) pretreated with 1 ml of unlabeled gentamicin (250 μg/ml). Filters were washed with 10 ml of 1.5% NaCl, placed into counting vials, and dried for 30 min at 52° C. 8 ml of liquid scintillation were then added to the dried filters and vials were incubated overnight at room temperature before being counted for 5 min. Gentamicin uptake efficiency is expressed as total accumulation of gentamicin (ng) per 108 cells, and plotted here for the final timepoint (2 h) for simplicity.

Turning to `CN(C)C(=O)C(CCN1CCC(O)(c2ccc(Cl)cc2)CC1)(c1ccccc1)c1ccccc1` [Loperamide, loperamide], the “General effect in combinations” value in experiment [1] is recorded as “general potentiating effect”. Also, in experiment [2] (MDR E. coli isolates), the “Effect on activity of colistin” value is on record as “potentiated” and the “Effect on activity of doxycycline” value is “potentiated”. For the same molecule, in experiment [3], the “Effect on activity of colistin” value was “potentiated” and the “Effect on activity of doxycycline” value is reported as “potentiated”.

Turning to `CCN1CCN(C(=O)N[C@@H](C(=O)N[C@@H]2C(=O)N3[C@@H]2SC(C)(C)[C@@H]3C(=O)O)c2ccccc2)C(=O)C1=O` [Piperacillin, piperacillin], the “Growth inhibition reached by single drug” value in [4] is listed as “did not reach 50% growth inhibition”.

Take `CC(=O)Oc1ccccc1C(=O)O` [aspirin, acetylsalicylic acid]: in [5], the “Effect on MIC of chloramphenicol” value is reported as “increase” and the “Effect on MIC of ciprofloxacin” value was “increase”.

On to `Cn1c(=O)c2c(ncn2C)n(C)c1=O` [caffeine], for which the “Antagonism with ciprofloxacin in mutant” value in [6] is “resolved”.

With `COc1cc(/C=C/C(=O)CC(=O)/C=C/c2ccc(O)c(OC)c2)ccc1O` [curcumin], the “Antagonism with ciprofloxacin in mutant” value in experiment [6] is “remain largely intact”.

`C[n+]1ccc(-c2cc[n+](C)cc2)cc1` [paraquat]: the “Antagonism with ciprofloxacin in mutant” value in experiment [6] is listed as “resolved”.

For `CCN(CC)CCOC(=O)c1ccc(N)cc1` [procaine], in [1], the “General effect in combinations” value is on record as “general potentiating effect” and the “Antibacterial activity / growth inhibition of the drug on its own” value is given as “did not inhibit bacterial growth on its own”. Further, in experiment [2] (MDR E. coli isolates), the “Effect on activity of doxycycline” value is listed as “resensitized” and the “Effect on activity of fusidic acid” value is given as “resensitized”. Moreover, in experiment [3], the “Effect on activity of doxycycline” value is listed as “resensitized” and the “Effect on activity of fusidic acid” value is reported as “resensitized”.

Consider `CN[C@@H]1[C@H](O)[C@H](NC)[C@H]2O[C@@]3(O)C(=O)C[C@@H](C)O[C@H]3O[C@@H]2[C@H]1O` [spectinomycin], for which the “Spectinomycin MIC change upon addition of vanillin” value in experiment [5] (100 μg/ml vanillin, wildtype E. coli BW and knockouts of AcrAB-TolC members or MarA) is reported as “decreases”. Moreover, the MIC in [5] (BW25113, read-out: MIC of spectinomycin, E. coli, with vanillin (65 μg/ml)) was roughly 15 µg/mL; in [5] (BW25113, read-out: MIC of spectinomycin, largely resistant E. coli, without vanillin), greater than 30 µg/mL. In addition, the “Spectinomycin MIC change” value in experiment [5] (deletion of mdfA) is on record as “increased”. Further, in experiment [5] (overexpression of mdfA (pmdfA) vs E. coli BW, MIC does not change), the “Spectinomycin sensitivity (dose response)” value is “increased spectinomycin sensitivity”. The “Increase of spectinomycin MIC” value in experiment [5] (with 500 μg/ml aspirin) is on record as roughly 3 fold. Besides, in experiment [5] (with vanillin, mild overexpression of mdfA (pmdfA), comparing to MIC of combination in wildtype), the “Decrease of spectinomycin MIC” value is on record as roughly 2 fold.

On to `COc1cc(C=O)ccc1O` [vanillin], for which the “Antibacterial activity / growth inhibition of the drug on its own” value in experiment [1] was “no antibacterial activity”. Moreover, in experiment [2] (E. coli MDR isolates), the “Effect on activity of spectinomycin” value is listed as “potentiated”. Moreover, in experiment [5], the “Effect on MIC of chloramphenicol” value is listed as “increase” and the “Effect on MIC of ciprofloxacin” value is on record as “increase”. Also, the “Effect on intracellular spectinomycin concentration” value in the experiment on E. coli BW25113 was “increased; also recorded: accumulation”. In the experiment with marA, the marA expression result is “overexpression”. Further, in the experiment with AcrA, the AcrA protein levels result is given as “increases”.

`COc1ccc(CCN(C)CCCC(C#N)(c2ccc(OC)c(OC)c2)C(C)C)cc1OC` (stereo not shown) [verapamil]: in experiment [1], the “General effect in combinations” value is recorded as “general potentiating effect”.

In the case of benzalkonium, the “Effect on intracellular gentamicin concentration” value with E. coli MG1655 is reported as “decreases”. Further, the “Antagonism with ciprofloxacin in mutant” value in experiment [6] was “remain largely intact”.

Values taken from patent publication US12668830B2, “Pharmaceutical compositions for prevention and/or treatment of infections and antibacterial-induced dysfunctions” (priority 2018, dated 2026).
